# ChEMBL document CHEMBL1201862, “PubChem BioAssay data set” (2004)
#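 Five concentrations, 48 hours, 96-well plates. GI50 marks 50% less growth.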 Calls of active or inactive are those of the source. Cut-off read from the data, not from the text of the source: active = GI50 up to about 1.1 µM and inactive = higher. Peptide text beside a SMILES is read from it. * marks the point of attachment. Cbz = O=C(OCc1ccccc1)*; Boc = CC(C)(C)OC(=O)*; OBn = c1ccc(CO*)cc1
# What was measured:
# Assay in all cases: NCI anticancer screen, dose series, 48 h
# [1] = system: SNB-19
# [2] = system: SF-268
# [3] = system: BT-549
# [4] = system: KM12
# [5] = system: SK-OV-3
# [6] = system: SNB-75
# [7] = system: OVCAR-5
# [8] = system: OVCAR-8
# [9] = system: A549
# [10] = system: EKVX
# [11] = system: MDA-N
# [12] = system: HCC 2998
# [13] = system: NCI-H23
# [14] = system: U-251
# [15] = system: LOX IMVI
# [16] = system: PC-3
# [17] = system: UACC-62
# [18] = system: SR
# [19] = system: RPMI-8226
# [20] = system: MDA-MB-231
# [21] = system: Malme-3M
# [22] = system: K562
# [23] = system: HL-60
# [24] = system: M14
# [25] = system: UO-31
# [26] = system: SK-MEL-5
# [27] = system: IGROV-1
# [28] = system: SN12C
# [29] = system: MCF7
# [30] = system: 786-0
# [31] = system: OVCAR-4
# [32] = system: A498
# [33] = system: NCI/ADR-RES
# [34] = system: SW-620
# [35] = system: OVCAR-3
# [36] = system: ACHN
# [37] = system: DU-145
# [38] = system: HOP-62
# [39] = system: SK-MEL-28
# [40] = system: CCRF-CEM
# [41] = system: MOLT-4
# [42] = system: NCI-H522
# [43] = system: RXF 393
# [44] = system: MDA-MB-435
# [45] = system: T47D
# [46] = system: SK-MEL-2
# [47] = system: TK-10
# [48] = system: SF-539
# [49] = system: HT-29
# [50] = system: NCI-H226
# [51] = system: CAKI-1
# [52] = system: NCI-H460
# [53] = system: UACC-257
# [54] = system: COLO 205
# [55] = system: HCT-15
# [56] = system: Hs-578T
# [57] = system: SF-295
# [58] = system: HCT-116
# [59] = system: HOP-92
compound,measurement,setting,value
Nc1ccc(-c2nc3ccccc3s2)cc1I,GI50,[1],54.2 µM (inactive)
same,GI50,[2],> 33.5 µM (inactive)
same,GI50,[3],> 78 µM (inactive)
same,GI50,[4],52.5 µM (inactive)
same,GI50,[5],> 65.6 µM (inactive)
same,GI50,[6],41.9 µM (inactive)
same,GI50,[7],0.0817 µM (active)
same,GI50,[8],> 96.2 µM (inactive)
same,GI50,[9],> 78 µM (inactive)
same,GI50,[10],14.9 µM (inactive)
same,GI50,[11],> 100 µM (inactive)
same,GI50,[12],5.06 µM (inactive)
same,GI50,[13],64.9 µM (inactive)
same,GI50,[14],34.4 µM (inactive)
same,GI50,[15],44.8 µM (inactive)
same,GI50,[16],41.5 µM (inactive)
same,GI50,[17],> 73.6 µM (inactive)
same,GI50,[18],42 µM (inactive)
same,GI50,[19],> 84.1 µM (inactive)
same,GI50,[20],> 69.7 µM (inactive)
same,GI50,[21],99.3 µM (inactive)
same,GI50,[22],39.2 µM (inactive)
same,GI50,[23],24.2 µM (inactive)
same,GI50,[24],81.8 µM (inactive)
same,GI50,[25],14.2 µM (inactive)
same,GI50,[26],58.7 µM (inactive)
same,GI50,[27],0.0107 µM (active)
same,GI50,[28],35.6 µM (inactive)
same,GI50,[29],< 0.0116 µM (active)
same,GI50,[30],43.9 µM (inactive)
same,GI50,[31],> 7.93 µM (inactive)
same,GI50,[32],28.6 µM (inactive)
same,GI50,[33],> 100 µM (inactive)
same,GI50,[34],> 92.7 µM (inactive)
same,GI50,[35],0.0614 µM (active)
same,GI50,[36],> 87.1 µM (inactive)
same,GI50,[37],> 100 µM (inactive)
same,GI50,[38],37.3 µM (inactive)
same,GI50,[39],> 100 µM (inactive)
same,GI50,[40],30.1 µM (inactive)
same,GI50,[41],28.4 µM (inactive)
same,GI50,[42],31.1 µM (inactive)
same,GI50,[43],29.7 µM (inactive)
same,GI50,[44],97.9 µM (inactive)
same,GI50,[45],18.7 µM (inactive)
same,GI50,[46],> 100 µM (inactive)
same,GI50,[47],0.0521 µM (active)
same,GI50,[48],77.8 µM (inactive)
same,GI50,[49],66.2 µM (inactive)
same,GI50,[50],0.221 µM (active)
same,GI50,[51],> 100 µM (inactive)
same,GI50,[52],38.5 µM (inactive)
same,GI50,[53],> 100 µM (inactive)
same,GI50,[54],36 µM (inactive)
same,GI50,[55],44.3 µM
same,GI50,[56],> 100 µM (inactive)
same,GI50,[57],74.3 µM (inactive)
COC(=O)C(CCCCNC(=O)OCc1ccccc1)NC(=O)C(CCC(=O)OCc1ccccc1)NC(=O)OC(C)(C)C (configuration not stated) (Boc-Glu(OBn)-Lys(Cbz)-OMe; configuration not given here),GI50,[1],40.2 µM (inactive)
same,GI50,[2],> 100 µM (inactive)
same,GI50,[3],> 100 µM (inactive)
same,GI50,[4],> 100 µM (inactive)
same,GI50,[5],46.6 µM (inactive)
same,GI50,[6],> 100 µM (inactive)
same,GI50,[7],> 100 µM (inactive)
same,GI50,[8],> 100 µM (inactive)
same,GI50,[9],> 100 µM (inactive)
same,GI50,[10],> 100 µM (inactive)
same,GI50,[11],> 100 µM (inactive)
same,GI50,[58],> 100 µM (inactive)
same,GI50,[59],> 100 µM (inactive)
same,GI50,[13],> 100 µM (inactive)
same,GI50,[14],> 100 µM (inactive)
same,GI50,[15],> 100 µM (inactive)
same,GI50,[16],> 100 µM (inactive)
same,GI50,[17],43 µM (inactive)
same,GI50,[18],> 100 µM (inactive)
same,GI50,[19],> 100 µM (inactive)
same,GI50,[20],73.6 µM (inactive)
same,GI50,[21],54.3 µM (inactive)
same,GI50,[22],> 100 µM (inactive)
same,GI50,[23],> 100 µM (inactive)
same,GI50,[24],> 100 µM (inactive)
same,GI50,[25],> 100 µM (inactive)
same,GI50,[26],> 100 µM (inactive)
same,GI50,[27],> 100 µM (inactive)
same,GI50,[28],> 100 µM (inactive)
same,GI50,[29],> 100 µM (inactive)
same,GI50,[30],> 100 µM (inactive)
same,GI50,[31],57.3 µM (inactive)
same,GI50,[32],16.1 µM (inactive)
same,GI50,[33],> 100 µM (inactive)
same,GI50,[34],> 100 µM (inactive)
same,GI50,[35],73.1 µM (inactive)
same,GI50,[36],> 100 µM (inactive)
same,GI50,[37],> 100 µM (inactive)
same,GI50,[38],15 µM (inactive)
same,GI50,[39],64 µM (inactive)
same,GI50,[41],> 100 µM (inactive)
same,GI50,[42],56.9 µM (inactive)
same,GI50,[43],> 100 µM (inactive)
same,GI50,[44],> 100 µM (inactive)
same,GI50,[45],> 100 µM (inactive)
same,GI50,[47],> 100 µM (inactive)
same,GI50,[48],> 100 µM (inactive)
same,GI50,[49],> 100 µM (inactive)
same,GI50,[50],> 100 µM (inactive)
same,GI50,[51],86.7 µM (inactive)
same,GI50,[52],> 10 µM (inactive)
same,GI50,[54],> 100 µM (inactive)
same,GI50,[55],> 100 µM
same,GI50,[56],27.7 µM (inactive)
same,GI50,[57],64.4 µM (inactive)
